This is an account of results in patent US12195762B2, “Induction of pluripotent cells” (The Scripps Research Institute, priority 2009, dated 2025).

“Also recorded” adds a separate entry of the source.

Test [1] concerns human primary fibroblasts (CRL2097 or BJ). Description: iPSC induction from human primary fibroblasts transduced with the four reprogramming factors, with compound treatment. The test is classed as cell-based. To be noted: for effect on reprogramming (in words): 4 factor-mediated reprogramming of fibroblasts. The method, then: We tested known inhibitors of the TGFβ receptor and MEK on 1×10^4 (Feng, B. et al., Cell Stem Cell 4, 301-12 (2009)) human primary fibroblasts (CRL2097 or BJ) that were retrovirally transduced with the 4TFs, for their effect on reprogramming kinetics and efficiency (see FIG. 1a for details). On day 7 (D7) post-infection, the compounds were added, individually or in combinations, and the cultures were examined for iPSCs over the next 1-3 weeks.
The Slc7a1-expressing human fibroblast cells were seeded at 1×10^5 cells/well of a 6 well plate on the day 1. On day 2, 0.25 ml of each retroviral supernatant was added to the cells in the presence of 6 μg/ml polybrene. A second round of transduction was done on day 3. Infection efficiency was estimated by fluorescence microscopy on cells transduced in parallel with GFP or RFP gene-carrying retroviruses. Seven days after initial transduction, fibroblasts were harvested by trypsinization and re-plated at 1×10^4 cells/well of a 6 well plate coated with matrigel (1:50 dilution, cat 354234, BD Biosciences). For compound treatment, the cells were cultured in human reprogramming medium (DMEM/F12, 20% Knockout serum replacer, 1×MEM Non-Essential amino acid, lx glutamax, 0.11 mM 2-Mercaptoethanol, 20 ng/ml bFGF and 1,000 U/ml LIF) and were treated with 2 μM SB431542 (Stemgent), 0.5 μM PD0325901 (Stemgent), 0.5 μM Thiazovivin, or combinations of the compounds. The media were changed every 2-3 days depending on the cell density. Seven days after compound treatment, either the plates were fixed and stained for Alkaline phosphatase (ALP) activity, or stained for protein markers, or the cultures were continued with or without indicated splitting by trypsinization till day 30. For split cultures, the cells were split (1:4) and re-plated onto irradiated CF-1 MEF feeder layer (2.5×10^5 cells/well) in each well of 6 well plate and were split (1:10) again on day 21. The cells were maintained in the same media and compound cocktail described above except for the concentrations of PD0325901 (0.5 μM for D14 and 1 μM for D21) and SB431542 (0.5-1 μM after D14). The iPSC colonies were subsequently maintained in conventional hESC media in the absence of the above compounds.
Alkaline phosphatase staining was performed using ALP detection kit (cat no: SCR004, Chemicon) according to the product instructions. For immunocytochemistry, cells were fixed in 4% paraformaldehyde (10 min, RT), washed twice with PBS, blocked using 5% normal donkey serum (Chemicon) and 0.1% TritonX-100 (15 min, RT) and then treated with primary antibodies overnight at 4° C. The primary antibodies used were anti-NANOG (cat no: AB9220, Chemicon, 1:1,000); anti-OCT4 (cat no: sc-5279, Santa Cruz biotech, 1:200), anti-SSEA 4 (cat no: mab4304, Chemicon, 1:500), anti-Tra-1-81 (cat 560123, BD Biosciences, 1:100), anti-Tra-1-81 (mAb 4381, Chemicon, 1:500), anti-βIII TUBULIN (cat no: MMS-435P, Covance Research Products Inc, 1:1000), anti-PDX 1 (1:500) (a kind gift from Dr. C. Wright), anti-BRACHYURY (cat No: AF2085, R & D, final concentration 0.2 μg/ml). The cells were washed twice with PBS and then treated with secondary antibodies for 1 hour at room temperature. The secondary antibodies used were Alexa fluor 488 donkey anti-rabbit or anti-mouse IgG (Invitrogen, 1:1,000) and Alexa fluor 555 donkey anti-rabbit or anti-mouse IgG (Invitrogen, 1:1,000). Nuclei were stained with 0.5 μg/ml DAPI (Sigma). Images were captured using a Nikon Eclipse TE2000-U/X-cite 120 EXFO microscope with a photometric CoolSnap HQ2 camera.

Test [2] deals with NHEKs, Neonatal Human Epidermal Keratinocytes. In words: Reprogramming of NHEKs (TRA-1-81 positive iPSC colonies). Format: cell-based. To be noted: for generation of iPSCs / enhancement of reprogramming under OK condition (in words): 2TFs (OK). The method, then: NHEKs were cultured in a 100 mm tissue culture dish and transduced 3 times (3-4 hours each transduction) with freshly produced lentivirus supernatants. 1,000,000 transduced NHEKs were seeded on the irradiated x-ray inactivated CF1 MEF feeder cells in a 100-mm dish and cultured in KCM and treated with 5 μM PS48, 0.25 mM NaB (Stemgent) and 0.5 μM A-83-01 (Stemgent) for 2 weeks, followed by changing half volume of media to hESCM and supplementing with 5 μM PS48, 0.25 mM NaB and 0.5 μM A-83-01 for another 2 weeks. Then cell culture media were changed to hESCM and supplemented with 5 μM PS48, 0.25 mM NaB, 0.5 μM A-83-01 and 0.5 μM PD0325901 (Stemgent) for additional four weeks. The same OCT4 infected keratinocytes cultured in media without chemicals were used as a control. The culture was split by Accutase (Millipore) and treated with 1 μM Thiazovivin (Stemgent) in the first day after splitting. The iPSC colonies stained positive by Alexa Fluor 555 Mouse anti-Human TRA-1-81 antibody (BD Pharmingen) were picked up for expansion on feeder cells in hESCM and cultured routinely.
NHEKs, Neonatal Human Epidermal Keratinocytes; HUVECs, Human Umbilical Vein Endothelial Cells; AHEKs, Adult Human Epidermal Keratinocytes; AFDCs, Amniotic Fluid Derived Cells. Chemical concentration used: PD, 0.5 μM PD0325901; A83, 0.5 μM A-83-01; PS48, 5 μM PS48; VPA, 0.5 mM Valproic acid; NaB, 0.25 mM Sodium butyrate; Par, 2 μM Parnate; CHIR, 3 μM CHIR99021. For four-factor or three-factor induced reprogramming, NHEKs were seeded at a density of 100,000 transduced cells per 10 cm dish and positive colonies were counted four-week later; For two-factor induced reprogramming, NHEKs were seeded at a density of 100,000 transduced cells per 10 cm dish and positive colonies were counted six-week later; For one-factor induced reprogramming, NHEKs and AHEKs were seeded at a density of 1,000,000 transduced cells per 10 cm dish and positive colonies were counted eight-week later; HUVECs and AFDCs were seeded at a density of 200,000 transduced cells per 10 cm dish and positive colonies were counted six-week later.

With TGFβ, the “effect on reprogramming (in words)” value in test [1] was “inhibitory effect”.
Turning to `O=C(O)/C=C(/CCc1ccc(Cl)cc1)c1ccccc1` [PS48], the “generation of iPSCs / enhancement of reprogramming under OK condition (in words)” value in test [2] is “substantially enhance reprogramming”. The “enhancement of the reprogramming efficiency” value in test [2] (two factors/OK, with 0.5 μM PD0325901 and 0.5 μM A-83-01) is recorded as “about fifteen fold”.
As to `Cc1ccc2c(c1)C(=O)C1(O)CCN(c3ccccc3)C1=N2` (stereo not drawn) [blebbistatin], the “effect on reprogramming (in words)” value in test [1] is “can be substituted for SB431542 (an ALK5 inhibitor), albeit with a reduced effect”.
For `CCCC(=O)[O-].[Na+]` [NaB, Sodium butyrate], in test [2], the “generation of iPSCs / enhancement of reprogramming under OK condition (in words)” value was “substantially enhance reprogramming; also recorded: much more reliable and efficient”.
Consider `O=C(NOC[C@H](O)CO)c1ccc(F)c(F)c1Nc1ccc(I)cc1F` [PD0325901], for which the “NANOG+ colonies at day 14” value in test [1] (4TFs, D14, no splitting) is listed as “no NANOG^+ colonies”.
With `NC(=O)c1ccc(-c2nc(-c3ccc4c(c3)OCO4)c(-c3ccccn3)[nH]2)cc1` [SB431542], the “dose dependence of the effect on iPS cell generation” value in test [1] (4TFs) was “dose dependent”. Further, the “ALP+ colonies with hESC-like morphology” value in test [1] (4TFs, 1×10^4 cells, day 7 post-treatment (D14), SB431542 2 μM, PD0325901 0.5 μM) was 1-2 colonies. The “number of granulate (partially reprogrammed) colonies” value in test [1] (4TFs, 30 days without splitting) is recorded as “outnumbered by several fold the few hESC-like colonies”.
